Measurements reported in ChEMBL document CHEMBL1201862, “PubChem BioAssay data set” (2004).
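A five-concentration, 48-hour dose response in 96-well plates underlies each endpoint, interpolated linearly between surrounding concentrations. GI50: concentration for 50% inhibition of growth.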 Active and inactive are the calls of the source. Cut-off read from the data, not from the text of the source: active = GI50 up to about 1.1 µM and inactive = higher.

Experiments:
Experiment in all cases: NCI anticancer screen, dose series, 48 h
ACHN = tested on: ACHN
CAKI-1 = tested on: CAKI-1
HCC 2998 = tested on: HCC 2998
HCT-116 = tested on: HCT-116
HOP-62 = tested on: HOP-62
K562 = tested on: K562
KM12 = tested on: KM12
M14 = tested on: M14
M19-MEL = tested on: M19-MEL
MOLT-4 = tested on: MOLT-4
NCI-H522 = tested on: NCI-H522
RPMI-8226 = tested on: RPMI-8226
SF-539 = tested on: SF-539
SK-MEL-28 = tested on: SK-MEL-28
SN12C = tested on: SN12C
SNB-75 = tested on: SNB-75
SF-295 = tested on: SF-295
SK-OV-3 = tested on: SK-OV-3

Measured: GI50

CC(C)OP(=O)(OC(C)C)/C(=N/Nc1ccc([N+](=O)[O-])cc1)NCCN/C(=N\Nc1ccc([N+](=O)[O-])cc1)P(=O)(OC(C)C)OC(C)C
inactive: ACHN 3.56 µM | CAKI-1 3.58 µM | HCC 2998 5.4 µM | HCT-116 3.48 µM | HOP-62 6.01 µM | K562 3.29 µM | KM12 3.8 µM | M14 14.8 µM | M19-MEL 5.85 µM | MOLT-4 3.31 µM | NCI-H522 3.22 µM | RPMI-8226 3.51 µM | SF-539 > 100 µM | SK-MEL-28 31.3 µM | SN12C 4.07 µM | SNB-75 5 µM

C=CCC12CC(=O)CCC1c1ccc(OC)cc1C2=O (configuration not stated)
inactive: ACHN > 100 µM | CAKI-1 > 100 µM | HCC 2998 > 100 µM | HCT-116 > 100 µM | HOP-62 > 100 µM | K562 > 100 µM | KM12 > 100 µM | M14 > 100 µM | M19-MEL > 100 µM | MOLT-4 > 100 µM | NCI-H522 > 100 µM | RPMI-8226 > 100 µM | SF-295 > 100 µM | SF-539 > 100 µM | SK-MEL-28 > 100 µM | SK-OV-3 > 100 µM | SN12C > 100 µM | SNB-75 > 100 µM

Cc1ccc(NC(=O)C(=O)C(C#N)c2nc(-c3ccc(-c4ccccc4)cc3)cs2)c(C)c1 (configuration not stated)
inactive: ACHN > 100 µM | CAKI-1 > 100 µM | HCC 2998 > 100 µM | HCT-116 > 100 µM | HOP-62 > 100 µM | M14 > 100 µM | M19-MEL > 100 µM | MOLT-4 > 100 µM | RPMI-8226 > 100 µM | SF-295 > 100 µM | SF-539 > 100 µM | SK-MEL-28 > 100 µM | SK-OV-3 > 100 µM | SN12C > 100 µM | SNB-75 > 100 µM

N#CC12CCC(O)C(CC1)C2=O (configuration not stated)
inactive: ACHN > 100 µM | CAKI-1 > 100 µM | HCC 2998 > 100 µM | HCT-116 73.1 µM | HOP-62 > 100 µM | K562 > 100 µM | KM12 > 100 µM | M14 > 100 µM | M19-MEL > 100 µM | MOLT-4 > 100 µM | NCI-H522 > 100 µM | RPMI-8226 26.9 µM | SF-295 > 100 µM | SF-539 > 100 µM | SK-MEL-28 > 100 µM | SK-OV-3 > 100 µM | SN12C > 100 µM | SNB-75 > 100 µM

Cn1nc(-c2ccccc2)c2c(/C=C/c3ccccc3)onc2c1=O
inactive: ACHN > 100 µM | CAKI-1 69 µM | HCC 2998 83.6 µM | HCT-116 > 100 µM | HOP-62 41.8 µM | K562 > 100 µM | KM12 > 100 µM | M14 > 100 µM | M19-MEL > 100 µM | MOLT-4 > 100 µM | NCI-H522 37.3 µM | RPMI-8226 > 100 µM | SF-295 38.9 µM | SF-539 65.8 µM | SK-MEL-28 > 100 µM | SK-OV-3 43.8 µM | SN12C > 100 µM | SNB-75 27 µM

COc1cc2c(cc1OC)C(CC1=C(c3ccccc3)CN3CCc4cc(OC)c(OC)cc4C3C1)NCC2 (configuration not stated)
inactive: ACHN 24.3 µM | CAKI-1 25.7 µM | HCC 2998 10.6 µM | K562 12.2 µM | KM12 17.2 µM | M14 21.3 µM | M19-MEL 17 µM | MOLT-4 9.91 µM | RPMI-8226 9.84 µM | SF-295 16.8 µM | SK-MEL-28 14.5 µM | SK-OV-3 28 µM | SN12C 17.9 µM | SNB-75 12.5 µM

CC(C)N1C(C)[C@@H](c2ccccc2)O[P@@]1(=O)CC1=CCCCC1 (some centres not stated)
inactive: ACHN > 100 µM | HCC 2998 > 100 µM | HCT-116 90.2 µM | HOP-62 > 100 µM | K562 48.6 µM | KM12 > 100 µM | M14 > 100 µM | M19-MEL > 100 µM | MOLT-4 80.7 µM | NCI-H522 > 100 µM | RPMI-8226 49.1 µM | SF-295 57 µM | SF-539 > 100 µM | SK-MEL-28 > 100 µM | SK-OV-3 > 100 µM | SN12C > 100 µM | SNB-75 > 100 µM

CCOC(=O)N[C@@H]1C2CC(=O)C(O2)[C@@H]1OC (some centres not stated)
inactive: ACHN > 100 µM | CAKI-1 > 100 µM | HCC 2998 > 100 µM | HCT-116 > 100 µM | HOP-62 > 100 µM | K562 > 100 µM | KM12 > 100 µM | M14 > 100 µM | M19-MEL > 100 µM | MOLT-4 > 100 µM | NCI-H522 > 100 µM | RPMI-8226 > 100 µM | SF-295 > 100 µM | SF-539 > 100 µM | SK-MEL-28 7.08 µM | SK-OV-3 > 100 µM | SN12C > 100 µM | SNB-75 > 100 µM

c1cnc2c(c1)-n1cccc1C1(CCSC1)NN2 (configuration not stated)
inactive: ACHN > 100 µM | CAKI-1 > 100 µM | HCC 2998 > 100 µM | HCT-116 > 100 µM | HOP-62 > 100 µM | K562 > 100 µM | KM12 > 100 µM | M14 > 100 µM | M19-MEL > 100 µM | MOLT-4 > 100 µM | NCI-H522 > 100 µM | RPMI-8226 > 100 µM | SF-295 > 100 µM | SF-539 > 100 µM | SK-MEL-28 > 100 µM | SN12C > 100 µM | SNB-75 > 100 µM

CCOC(=O)C1(Br)C(c2ccccc2)NC(=O)N(C2OC(COC(=O)c3ccccc3)C(OC(=O)c3ccccc3)C2OC(=O)c2ccccc2)C1(C)Br (configuration not stated)
inactive: ACHN 30.8 µM | CAKI-1 35.6 µM | HCC 2998 91 µM | HCT-116 18.2 µM | HOP-62 38.9 µM | K562 8.91 µM | KM12 21.6 µM | M14 21 µM | M19-MEL 28.4 µM | MOLT-4 18.2 µM | NCI-H522 10.2 µM | RPMI-8226 9.31 µM | SF-295 33.3 µM | SF-539 38.7 µM | SK-MEL-28 > 47 µM | SK-OV-3 42.9 µM | SN12C 34 µM | SNB-75 13.3 µM

COc1cc(C)c(C)c(OC(=O)c2c(C)c(C)c(OC)c(C)c2OC)c1C
inactive: ACHN 13.4 µM | CAKI-1 7.26 µM | HCC 2998 13.8 µM | HCT-116 4.1 µM | HOP-62 15 µM | K562 3.83 µM | KM12 3.31 µM | M14 6.75 µM | M19-MEL 7.6 µM | MOLT-4 9.31 µM | NCI-H522 1.9 µM | RPMI-8226 13.6 µM | SF-295 3.92 µM | SF-539 14.1 µM | SK-MEL-28 20.4 µM | SK-OV-3 7.19 µM | SN12C 15.7 µM | SNB-75 4.04 µM

C[C@]12CCC[C@H](Cl)C1(O)C[C@H](C(=O)O)CC2 (some centres not stated)
inactive: ACHN > 100 µM | CAKI-1 > 100 µM | HCC 2998 > 100 µM | HCT-116 > 100 µM | HOP-62 > 100 µM | K562 > 100 µM | KM12 > 100 µM | M14 > 100 µM | M19-MEL > 100 µM | MOLT-4 > 100 µM | NCI-H522 > 100 µM | RPMI-8226 > 100 µM | SF-295 > 100 µM | SF-539 > 100 µM | SK-MEL-28 > 100 µM | SK-OV-3 > 100 µM | SN12C > 100 µM | SNB-75 > 100 µM

COC(=O)C(=O)C1CCCCC(C2=NC3NN=C(N)N3C2=O)C1=O (configuration not stated)
inactive: ACHN > 100 µM | CAKI-1 > 100 µM | HCC 2998 > 100 µM | HCT-116 > 100 µM | HOP-62 > 100 µM | K562 > 100 µM | KM12 > 100 µM | M14 > 100 µM | M19-MEL > 100 µM | MOLT-4 > 100 µM | NCI-H522 > 100 µM | SF-295 > 100 µM | SF-539 > 100 µM | SK-MEL-28 > 100 µM | SK-OV-3 > 100 µM | SN12C > 100 µM | SNB-75 > 100 µM

O=C(O)/C(Cl)=C(\Cl)C(=O)Nc1ccccc1
inactive: ACHN > 100 µM | CAKI-1 > 100 µM | HCC 2998 > 100 µM | HCT-116 > 100 µM | HOP-62 > 100 µM | K562 > 100 µM | KM12 > 100 µM | M14 > 100 µM | M19-MEL > 100 µM | MOLT-4 > 100 µM | RPMI-8226 > 100 µM | SF-295 > 100 µM | SF-539 > 100 µM | SK-MEL-28 > 100 µM | SK-OV-3 > 100 µM | SN12C > 100 µM | SNB-75 > 100 µM

CCCCc1c2c(nc3c1CCc1cc4c(nc1-3)-c1nc3c(c(CCCC)c1CC4)CCC/C3=C\c1ccccc1)/C(=C/c1ccccc1)CCC2
inactive: CAKI-1 29.1 µM | HCC 2998 88.3 µM | HCT-116 65.3 µM | HOP-62 36.9 µM | K562 > 100 µM | KM12 98.9 µM | M14 > 100 µM | M19-MEL > 100 µM | MOLT-4 > 100 µM | NCI-H522 44.1 µM | RPMI-8226 > 100 µM | SF-295 78.9 µM | SF-539 33.5 µM | SK-MEL-28 > 100 µM | SK-OV-3 36.2 µM | SN12C > 100 µM

COC(=O)C(Cc1nc2ccccc2nc1O)C(=O)C(=O)Nc1ccc(OC)cc1[N+](=O)[O-] (configuration not stated)
inactive: ACHN > 100 µM | CAKI-1 > 100 µM | HCC 2998 > 100 µM | HCT-116 > 100 µM | HOP-62 > 100 µM | K562 > 100 µM | KM12 > 100 µM | M14 > 100 µM | M19-MEL > 100 µM | MOLT-4 > 100 µM | NCI-H522 > 100 µM | RPMI-8226 > 100 µM | SF-295 > 100 µM | SF-539 > 100 µM | SK-MEL-28 > 100 µM | SK-OV-3 > 100 µM | SN12C > 100 µM
